What was measured:
Assay in all cases: normalised viability (% of control), CellTiter-Blue; higher = more viable cells (100 = DMSO, 0 = benzethonium chloride kill control)
Conditions in all cases: incubation time: 72 h
MDA-MB-468 = system: MDA-MB-468
Method: (§1)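 DSRT, CellTiter-Blue viability, 72 h incubation. Signal is normalised to DMSO and benzethonium chloride controls. Value is the normalised response at dose 1.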

SK-BR-3 = system: SK-BR-3
Method: as §1

CAL-120 = system: CAL-120
Method: as §1

BT-549 = system: BT-549
Method: as §1

Hs578T = system: Hs578T
Method: as §1

CAL-85-1 = system: CAL-85-1
Method: as §1

MDA-MB-231 = system: MDA-MB-231
Method: as §1

HCC1599 = system: HCC1599
Method: as §1

MDA-MB-453 = system: MDA-MB-453
Method: as §1

HCC1143 = system: HCC1143
Method: as §1

DU-4475 = system: DU-4475
Method: as §1

MDA-MB-436 = system: MDA-MB-436
Method: as §1

CAL-148 = system: CAL-148
Method: as §1

BT-474 = system: BT-474
Method: as §1

CAL-51 = system: CAL-51
Method: as §1

HCC1937 = system: HCC1937
Method: as §1

HDQ-P1 = system: HDQ-P1
Method: as §1

MFM-223 = system: MFM-223
Method: as §1

**Q.** Which results are given for `N[C@@H](Cc1ccc(N(CCCl)CCCl)cc1)C(=O)O` [Melphalan] (0.099 nM)?
**A.** normalised viability (MDA-MB-468): 102%; normalised viability (SK-BR-3): 94%; normalised viability (CAL-120): 82.9%; normalised viability (BT-549): 107%; normalised viability (Hs578T): 93.8%; normalised viability (CAL-85-1): 85.7%; normalised viability (MDA-MB-231): 95.1%; normalised viability (HCC1599): 96.1%; normalised viability (MDA-MB-453): 97.8%; normalised viability (HCC1143): 84.7%; normalised viability (DU-4475): 99.8%; normalised viability (MDA-MB-436): 89.8%; normalised viability (CAL-148): 112%; normalised viability (BT-474): 85.2%; normalised viability (CAL-51): 100%; normalised viability (HCC1937): 87.2%; normalised viability (HDQ-P1): 107%; normalised viability (MFM-223): 94.3%

**Q.** With `Cc1c(C(=O)Nc2ccc(N3C[C@@H](C)O[C@@H](C)C3)nc2)cccc1-c1ccc(OC(F)(F)F)cc1` [NVP-LDE225] (1 nM) as the compound, how does the normalised viability (MDA-MB-468) read?
**A.** 129%

**Q.** What about the normalised viability (SK-BR-3) of the same compound?
**A.** 91.5%

**Q.** What about the normalised viability (CAL-120) of the same compound?
**A.** 93.1%

**Q.** What about the normalised viability (BT-549) of the same compound?
**A.** 87.2%

**Q.** What about the normalised viability (Hs578T) of the same compound?
**A.** 111%

**Q.** And the normalised viability (CAL-85-1)?
**A.** 99.5%

**Q.** And the normalised viability (MDA-MB-231)?
**A.** 98%

**Q.** What about the normalised viability (HCC1599) of the same compound?
**A.** 85.8%

**Q.** What about the normalised viability (MDA-MB-453) of the same compound?
**A.** 108%

**Q.** And the normalised viability (HCC1143)?
**A.** 105%

**Q.** And the normalised viability (DU-4475)?
**A.** 102%

**Q.** And the normalised viability (MDA-MB-436)?
**A.** 79.5%

**Q.** What about the normalised viability (CAL-148) of the same compound?
**A.** 92.9%

**Q.** And the normalised viability (BT-474)?
**A.** 109%

**Q.** And the normalised viability (CAL-51)?
**A.** 103%

**Q.** And the normalised viability (HCC1937)?
**A.** 96.4%

**Q.** What about the normalised viability (HDQ-P1) of the same compound?
**A.** 70.9%

**Q.** And the normalised viability (MFM-223)?
**A.** 96.4%
